PMC9318782, “Assessments of Ceanothanes Triterpenes as Cholinesterase Inhibitors: An Investigation of Potential Agents with Novel Inspiration for Drug Treatment of Neurodegenerative Diseases” (Metabolites, 2022)
Read-outs that look alike come from different tables or passages of the source.

Key:
PAS of EeAChE = target: T1, PAS of EeAChE (Electrophorus electricus, UniProt O42275); assay: Propidium iodide displacement assay; type: binding; details: 0.25 h, read-out: % Displacement of Propidium Iodide
T1 construct: purchased Sigma-Aldrich
T1 sequence (O42275 24-633): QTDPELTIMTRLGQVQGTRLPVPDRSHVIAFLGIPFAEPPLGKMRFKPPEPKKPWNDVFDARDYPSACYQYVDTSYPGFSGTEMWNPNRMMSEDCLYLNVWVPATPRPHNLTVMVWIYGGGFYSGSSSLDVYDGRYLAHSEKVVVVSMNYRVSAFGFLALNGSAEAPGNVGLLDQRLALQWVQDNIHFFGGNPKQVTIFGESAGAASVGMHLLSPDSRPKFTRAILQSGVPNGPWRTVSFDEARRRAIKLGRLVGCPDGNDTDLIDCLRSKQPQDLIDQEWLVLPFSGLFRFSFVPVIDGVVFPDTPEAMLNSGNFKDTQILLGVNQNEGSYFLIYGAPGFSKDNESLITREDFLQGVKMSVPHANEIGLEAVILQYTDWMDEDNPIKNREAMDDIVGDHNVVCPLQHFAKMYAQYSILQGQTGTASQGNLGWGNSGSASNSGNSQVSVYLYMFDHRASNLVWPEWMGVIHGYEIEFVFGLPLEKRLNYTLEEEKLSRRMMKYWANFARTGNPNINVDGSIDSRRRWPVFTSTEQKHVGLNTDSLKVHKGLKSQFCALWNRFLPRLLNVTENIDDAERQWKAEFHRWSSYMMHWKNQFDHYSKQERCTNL
Procedure: […] Propidium iodide is known for ability to specifically binding to the PAS region of AChE.
The percentage inhibition was calculated by the following expression: 100-(IFi/IF0 × 100), where IF1 and IF0 correspond to fluorescence intensities with and without the test compound, respectively. Each assay was carried out in triplicate.

AChE from human blood = target: T2, AChE from human blood (Homo sapiens, UniProt P22303); assay: biochemical; details: AChE obtained from human blood samples; Ellman; read-out: IC50 ± SEM, AChE hb
T2 construct: the enzyme extracted from human blood; from tissue; host or cells: human whole blood, erythrocytes lysed with Triton X-100
T2 sequence (P22303 32-617 isoform P22303-2 limits assumed): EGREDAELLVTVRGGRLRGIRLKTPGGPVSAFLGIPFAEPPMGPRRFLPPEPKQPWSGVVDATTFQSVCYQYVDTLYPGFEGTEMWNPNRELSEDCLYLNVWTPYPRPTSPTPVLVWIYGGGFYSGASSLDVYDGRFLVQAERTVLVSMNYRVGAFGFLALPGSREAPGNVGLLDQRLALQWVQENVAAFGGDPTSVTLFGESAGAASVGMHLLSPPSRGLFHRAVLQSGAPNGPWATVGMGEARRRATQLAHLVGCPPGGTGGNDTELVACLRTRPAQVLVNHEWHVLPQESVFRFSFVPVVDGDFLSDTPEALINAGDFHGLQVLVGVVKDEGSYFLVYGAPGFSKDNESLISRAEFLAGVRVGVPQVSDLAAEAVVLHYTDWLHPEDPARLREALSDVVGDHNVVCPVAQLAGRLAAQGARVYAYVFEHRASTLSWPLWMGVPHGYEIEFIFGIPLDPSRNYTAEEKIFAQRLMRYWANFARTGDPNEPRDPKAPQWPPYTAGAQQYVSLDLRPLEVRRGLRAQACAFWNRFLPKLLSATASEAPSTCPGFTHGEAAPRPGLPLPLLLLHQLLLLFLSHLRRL
Procedure: (§1) The Ellman assay was used to test acetylcholinesterase (AChE from Electrophorus electricus, and human blood) and butyrylcholinesterase (BChE from equine serum) inhibition activity. Human blood was drawn using sterilized syringes and stored in BD Vacutainer tubes with heparin as an anticoagulant at 4 °C for 1 h. To lyse the erythrocytes, 1 mL of a 1:50 dilution of the blood sample was prepared with the non-ionic detergent triton X-100. A mixture of the DTNB (125 μL), enzyme solution (25 μL), and compound solution (25 μL) was prepared and incubated at room temperature for 20 min. All the assays were under 0.1 M KH2PO4/K2HPO4 buffer, pH 8.0. The substrate was added to start the enzymatic reaction. […] All measurements were performed fivefold as triplicate. The compounds were assayed in a dilution interval of 15 to 500 μg/mL. […] The percentage of inhibition was determined as follows: I(%)=(1−Aprobe/Ablank)100

AChE [1] = target: T3, AChE (Electrophorus electricus, UniProt O42275); assay: biochemical; type: biochemical; details: for Inhibition Type: Lineweaver-Burk and Dixon plots
T3 sequence (O42275 24-633): as the sequence (O42275 24-633) above
Procedure: To investigate the inhibition mechanism of the tested compounds on AChE, a kinetic analysis was performed. The experiments were carried out using a combination of four substrate concentrations and three inhibitor concentrations with the view to obtain a double reciprocal plot (Lineweaver–Burk), in which each point is the mean of three different experiments. A parallel control with no inhibitor in the mixture allowed adjusting activities to be measured at various times.

[2] = target: T4, AChE from Electrophorus electricus (Electrophorus electricus, UniProt O42275); assay: biochemical; details: AChE from Electrophorus electricus (commercial enzyme); Ellman; Table 1; read-out: IC50 ± SEM, AChE
T4 construct: purchased Sigma-Aldrich
T4 sequence (O42275 24-633): as above
Procedure: The Ellman assay was used to test acetylcholinesterase (AChE from Electrophorus electricus, and human blood) and butyrylcholinesterase (BChE from equine serum) inhibition activity. Human blood was drawn using sterilized syringes and stored in BD Vacutainer tubes with heparin as an anticoagulant at 4 °C for 1 h. To lyse the erythrocytes, 1 mL of a 1:50 dilution of the blood sample was prepared with the non-ionic detergent triton X-100. A mixture of the DTNB (125 μL), enzyme solution (25 μL), and compound solution (25 μL) was prepared and incubated at room temperature for 20 min. All the assays were under 0.1 M KH2PO4/K2HPO4 buffer, pH 8.0. The substrate was added to start the enzymatic reaction. […] All measurements were performed fivefold as triplicate. The compounds were assayed in a dilution interval of 15 to 500 μg/mL.

[3] = target: T5, butyrylcholinesterase (BChE from equine serum) (Equus caballus, UniProt P81908); assay: Ellman assay, BChE inhibition; type: biochemical
T5 construct: butyrylcholinesterase (from equine serum) were purchased from Sigma-Aldrich; purchased Sigma-Aldrich; host or cells: equine serum
T5 sequence (P81908 whole entry): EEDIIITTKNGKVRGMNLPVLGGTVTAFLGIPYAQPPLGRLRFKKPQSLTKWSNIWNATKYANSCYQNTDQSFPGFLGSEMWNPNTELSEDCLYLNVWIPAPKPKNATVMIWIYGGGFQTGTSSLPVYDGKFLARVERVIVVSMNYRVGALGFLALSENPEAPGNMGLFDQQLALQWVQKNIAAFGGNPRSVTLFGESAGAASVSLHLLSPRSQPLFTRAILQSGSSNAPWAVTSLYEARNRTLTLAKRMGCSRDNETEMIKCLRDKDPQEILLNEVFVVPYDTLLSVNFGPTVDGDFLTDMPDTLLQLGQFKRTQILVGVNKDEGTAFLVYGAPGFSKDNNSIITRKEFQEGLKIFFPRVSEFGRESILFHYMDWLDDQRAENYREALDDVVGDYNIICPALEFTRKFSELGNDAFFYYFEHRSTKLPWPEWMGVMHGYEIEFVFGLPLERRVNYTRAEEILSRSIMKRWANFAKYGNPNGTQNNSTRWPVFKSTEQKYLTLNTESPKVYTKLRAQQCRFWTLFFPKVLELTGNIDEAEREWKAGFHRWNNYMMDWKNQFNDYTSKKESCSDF
Procedure: as §1

AChE [4] = target: T3, AChE; details: cited from earlier work; for IC50: read-out: IC50, AChE inhibitory activity
[5] = alkaloids from Esenbeckia leiocarpa ref 40

| Compound | inhibition at 0.75 µM (PAS of EeAChE) [%] | inhibition at 1.5 µM (PAS of EeAChE; 1.5 µM compound, EeAChE) [%] | IC50 (AChE from human blood) [nM] | Ki (AChE [1]) [nM] | Inhibition Type (AChE [1]) | IC50 [2] [nM] | IC50 [3] [nM] | inhibition at 1.5 µM (PAS of EeAChE) [%] | Inhibition Type (AChE [1]; listed as compound 3) | IC50 (AChE [4]) [nM] | IC50 (AChE [4]; [5]) [nM] | mode of AChE inhibition (AChE [4]) |
| --- | --- | --- | --- | --- | --- | --- | --- | --- | --- | --- | --- | --- |
| C=C(C)[C@@H]1CC[C@]2(C(=O)O)CC[C@]3(C)C(CCC4[C@@]5(C)C(C=O)=CC(C)(C)C5CC[C@]43C)C12 (stereo partly shown) [Compound 1, Zizyberenalic acid] | 19.7 ± 0.8 | 26.3 ± 1.3 | 215 ± 5 | 46 | mixed competitive mode inhibition | 184 ± 0.7 | > 500000 |  |  |  |  |  |
| C=C(C)[C@@H]1CC[C@]2(C(=O)O)CC[C@]3(C)C(CCC4[C@@]5(C)C(C=O)C(O)C(C)(C)C5CC[C@]43C)C12 (stereo partly shown) [Compound 2, Zizyberanalic acid] |  |  | 173 ± 6 | 28 | mixed competitive mode inhibition | 150 ± 0.9 | > 500000 | 23.2 ± 0.8 |  |  |  |  |
| C=C(C)[C@@H]1CC[C@]2(C(=O)O)CC[C@]3(C)[C@H](CC[C@@H]4[C@@]5(C)[C@@H](C(=O)O)[C@H](O)C(C)(C)[C@@H]5CC[C@]43C)[C@@H]12 [Compound 3, Ceanothic acid] | 34.2 ± 0.6 | 45.6 ± 1.1 | 146 ± 3 | 55 | partially competitive | 125 ± 0.4 | > 500000 |  | competitive and reversible |  |  |  |
| C=C(C)[C@@H]1CC[C@]2(C(=O)O)CC[C@]3(C(=O)O)[C@H](CC[C@@H]4[C@@]5(C)C=CC(C)(C)[C@@H]5CC[C@]43C)[C@@H]12 [Compound 4, Ceanothenic acid] | 20.1 ± 1 | 26.7 ± 1.3 | 219 ± 4 | 22 | mixed competitive mode inhibition | 188 ± 0.5 | > 500000 |  |  |  |  |  |
| C=C(C)[C@@H]1CC[C@]2(C(=O)O)CC[C@]3(C)[C@H](CC[C@@H]4[C@@]5(C)[C@H](CO)[C@@H](O)C(C)(C)[C@@H]5CC[C@]43C)[C@@H]12 [Compound 5, Ceanothanolic acid] | 14.5 ± 0.3 | 19.3 ± 1.5 | 181 ± 0.7 | 56 | mixed competitive mode inhibition | 155 ± 0.1 | > 500000 |  |  |  |  |  |
| C=C(C)[C@@H]1CC[C@]2(C(=O)O)CC[C@]3(C)C(CCC4[C@@]5(C)C(C(=O)O)C(=O)C(C)(C)C5CC[C@]43C)C12 (stereo partly shown) [Compound 6, 3-oxo-ceanothic acid] | 24.3 ± 0.7 | 40.5 ± 1.5 | 199 ± 9 | 47 | mixed competitive mode inhibition | 172 ± 1.2 | > 500000 |  |  |  |  |  |
| C=C(C)[C@@H]1CC[C@]2(C(=O)O)CC[C@]3(C)C(CCC4[C@@]5(C)C(C(=O)O)C(OC(C)=O)C(C)(C)C5CC[C@]43C)C12 (stereo partly shown) [Compound 7, 3-O-acetyl-ceanothic acid] |  |  | 207 ± 6 | 50 | partially competitive | 179 ± 0.1 | > 500000 | 32.1 ± 1.3 |  |  |  |  |
| O=c1c(O)c(-c2ccccc2)oc2cc(O)cc(O)c12 [galangin] |  |  |  |  |  |  |  |  |  | 120000 |  |  |
| COc1cc2nc3occc3c(OC)c2cc1OC [kokusaginine] |  |  |  |  |  |  |  |  |  |  | 46000 |  |
| CCCc1cc(=O)c2ccccc2n1C [leptomerine] |  |  |  |  |  |  |  |  |  |  | 2500 |  |
| C[C@H]1[C@H](C)CC[C@]2(C(=O)O)CC[C@]3(C)C(=CC[C@@H]4[C@@]5(C)CC[C@H](O)C(C)(C)[C@@H]5CC[C@]43C)[C@H]12 [ursolic acid] |  |  |  |  |  |  |  |  |  |  |  | competitive/non-competitive |
